A short description of experiment [1]: Inhibition of EGFR L858R mutant (unknown origin) expressed in mouse Ba/F3 cells assessed as reduction in cell growth incubated for 72 hrs in presence of 1 ug/ml Cetuximab by celltiter-glo luminescent cell viability assay. A general note: ATP-based viability assays read luminescence as a measure of living cells.
Experiment [2] in a line: Inhibition of EGFR triple T790M/L858R/C797S mutant (unknown origin) expressed in mouse Ba/F3 cells assessed as reduction in cell growth incubated for 72 hrs in presence of 1 ug/ml Cetuximab by celltiter-glo luminescent cell viability assay.
The nature of experiment [3]: Inhibition of EGFR double T790M/L858R mutant (unknown origin) expressed in mouse Ba/F3 cells assessed as reduction in cell growth incubated for 72 hrs in presence of 1 ug/ml Cetuximab by celltiter-glo luminescent cell viability assay.
Experiment [4] is described as follows: Inhibition of EGFR (unknown origin) expressed in mouse Ba/F3 cells assessed as reduction in cell growth incubated for 72 hrs in presence of 1 ug/ml Cetuximab by celltiter-glo luminescent cell viability assay.

For orientation: IC50 means the midpoint of a concentration-inhibition curve. `CN1CCN(c2ccc(Oc3ccc4c(c3)C(=O)N(Cc3ccccc3)c3cc(F)ccc3N4)cc2)CC1`: the IC50 in experiment [1] was 2.7 µM; in experiment [2] it was 0.2 µM; in experiment [3], 0.36 µM; in experiment [4] it was 3.2 µM.

For `O=C1c2cc(-c3ccc(N4CCNCC4)cc3)ccc2Nc2ccc(F)cc2N1Cc1ccccc1`, the IC50 in experiment [1] was 3.7 µM; in experiment [2] it was 0.93 µM; in experiment [3], 0.77 µM; in experiment [4], 4.1 µM.

These data come from BindingDB's records for doi:10.1021/acsmedchemlett.9b00381 (Dana-Farber Cancer Institute, 2019).
